Columns and labels:
SARS-CoV-2 Mpro [1] = biological target: T1, SARS-CoV-2 Mpro (Severe acute respiratory syndrome coronavirus 2, UniProt P0DTD1); assay: sandwich-like FP screening assay; type: biochemical
SARS-CoV-2 Mpro [2] = biological target: T1, SARS-CoV-2 Mpro; assay: SPR binding assay
Procedure: The binding affinity between dieckol and Mpro was measured using a real-time SPR spectroscopy instrument (Reichert 2SPR, Buffalo, USA). In all, 20 µL Mpro (1.6 mg/mL) in 10 mM NaAc buffer (pH5.5) was immobilized to a surface activated CM5 gold biosensor (Reichert Inc., New York, USA), and the active sites were quenched with 1 M ethanolamine buffer (pH8.0). After washing the sample loop, an indicated concentration of dieckol (0, 6.25, 12.5, 25 µM) was separately injected on the surface of the Mpro-captured biosensor at RT. The binding time of the analyte to the ligand was 90 s, and the dissociation kinetic was recorded during 330 s. Finally, the real RIU was continuously monitored, and the RIU can be related to arbitrary resonance unit (RU) as 1 µRIU = 0.733 RU. The KD value was calculated using the analyte binding kinetic curve plotted by Trace Drawer software (Ridgeview Instruments, Sweden).

SARS-CoV-2 Mpro [3] = biological target: T1, SARS-CoV-2 Mpro; assay: FRET assay, inhibition of Mpro proteolytic activity; type: biochemical; conditions: for IC50: IC50, FRET assay
Procedure: As described previously, the inhibitory activity of dieckol against Mpro was preformed using a FRET assay. In brief, 50 µL sample of Mpro (0.4 µM) was preincubated with the indicated concentrations of dieckol (initial concentration: 100 µM, 8 two-fold dilutions) at RT for 35 min in FP assay buffer, and the reaction was initiated by adding 5 µM FRET substrate. DMSO and GC-376 (1 µM) was used as a negative and positive control, respectively. The RFU change was separately measured as described previously every second for 3 min by a microplate reader. The VI was calculated by a slope of the linear regression in the first 30 s, and the IC50 value was calculated using the following equation:3 Dieckolinhibition(%)=1-VIDieckol/VIDMSO×100%
To clarify the inhibitory mechanism of dieckol, the fixed concentrations of dieckol (0, 2, 4, 6 µM) were separately added to 50 µL sample of Mpro (0.4 µM), and the mixture was preincubated for 10 min at RT. After adding 5 µM FRET substrate, the VI was measured using a FRET assay. The inhibition mechanism of dieckol was inferred using the LB plot and a Ki value was generated by its secondary plot.

[4] = system: COc1ccc2c(CC(=O)N[C@@H](C)C(=O)N[C@H](C(=O)N[C@@H](CC(C)C)C(=O)N[C@@H](CCC(N)=O)C(=O)N[C@@H](CO)C(=O)NCC(=O)N[C@@H](Cc3ccccc3)C(=O)N[C@@H](CCCNC(=N)N)C(=O)N[C@@H](CCCCNc3ccc([N+](=O)[O-])cc3[N+](=O)[O-])C(=O)N[C@@H](CCCCN)C(N)=O)C(C)C)cc(=O)oc2c1; assay: purified protein, by the assay type; conditions: pH 8.0

Row | Molecule | IC50 (SARS-CoV-2 Mpro [1]; absence of DTT) [µM] | IC50 (SARS-CoV-2 Mpro [1]; presence of 1 mM DTT) [µM] | Kd (SARS-CoV-2 Mpro [2]) [µM] | kd (SARS-CoV-2 Mpro [2]; SPR dissociation rate) [s⁻¹] | Ki (SARS-CoV-2 Mpro [3]) [µM] | IC50 (SARS-CoV-2 Mpro [3]; absence of DTT) [µM] | IC50 (SARS-CoV-2 Mpro [3]; presence of 1 mM DTT) [µM] | inhibition mechanism (SARS-CoV-2 Mpro [3]; Lineweaver-Burk plot, same Vmax, varying Km) | Km [4] [µM]
1 | Oc1cc(O)cc(Oc2c(O)cc(O)c3c2Oc2c(O)cc(Oc4c(O)cc(Oc5c(O)cc(O)c6c5Oc5c(O)cc(O)cc5O6)cc4O)cc2O3)c1 [dieckol] | 2.9 ± 0.2 | 4.5 ± 0.4 | 0.22 | 0.000226 | 3.3 | 1.8 ± 0.2 | 3.8 ± 0.3 | competitive inhibitor | 
2 | SARS-CoV-2 Mpro (Severe acute respiratory syndrome coronavirus 2) |  |  |  |  |  |  |  |  | 19.78

Source: PMC8645223, “Development of a simple and miniaturized sandwich-like fluorescence polarization assay for rapid screening of SARS-CoV-2 main protease inhibitors” (Cell & Bioscience, 2021)
